Measured values as given in ChEMBL document CHEMBL1165930, “The anticancer activity of 3- and 10-bromofascaplysins is mediated by caspase-8, -9, -3-dependent apoptosis” (Bioorg Med Chem, 2010).
Calls of active or inactive are those of the source. The rule behind the calls is not given here.

Tests used:
[1] = Inhibition of EGF-stimulated colony formation in mouse JB6 Cl41 cells by anchorage-independent soft agar assay; type: functional
HeLa [2] = test: Anticancer activity in human HeLa cells assessed as inhibition of colony formation by anchorage-independent soft agar assay; type: functional
HL-60 [3] = test: Anticancer activity in human HL60 cells assessed as inhibition of colony formation by anchorage-independent soft agar assay; type: functional
SK-MEL-28 [4] = test: Anticancer activity in human SK-MEL-28 cells assessed as inhibition of colony formation by anchorage-independent soft agar assay; type: functional
THP-1 [5] = test: Anticancer activity in human THP1 cells assessed as inhibition of colony formation by anchorage-independent soft agar assay; type: functional
[6] = Inhibition of EGF-stimulated viability of mouse JB6 Cl41 cells after 22 hrs by MTS assay; type: functional, cell-based; details: JB6 Cl41, 22 h
HL-60 [7] = test: Cytotoxicity against human HL60 cells after 22 hrs by MTS assay; type: functional, cell-based; details: HL-60, 22 h
THP-1 [8] = test: Cytotoxicity against human THP1 cells after 22 hrs by MTS assay; type: functional, cell-based; details: THP-1, 22 h
HeLa [9] = test: Cytotoxicity against human HeLa cells after 22 hrs by MTS assay; type: functional, cell-based
MDA-MB-231 = test: Cytotoxicity against human MDA-MB-231 cells after 22 hrs by MTS assay; type: functional, cell-based; details: MDA-MB-231, 22 h
DLD-1 = test: Cytotoxicity against human DLD1 cells after 22 hrs by MTS assay; type: functional, cell-based; details: DLD-1, 22 h
[10] = Cytotoxicity against human SNUC4 cells after 22 hrs by MTS assay; type: functional, cell-based; details: SNU-C4, 22 h
SK-MEL-28 [11] = test: Cytotoxicity against human SK-MEL-28 cells after 22 hrs by MTS assay; type: functional, cell-based; details: SK-MEL-28, 22 h
THP-1 [12] = test: Induction of apoptosis in human THP1 cells after 24 hrs by FITC-conjugated annexin V and propidium iodide staining-based flow cytometry; type: functional, cell-based
THP-1 [13] = test: Induction of apoptosis in human THP1 cells assessed as viable cells at 500 nM after 24 hrs by FITC-conjugated annexin V and propidium iodide staining-based flow cytometry; type: functional; details: THP-1, 24 h, read-out: Activity
THP-1 [14] = test: Induction of apoptosis in human THP1 cells assessed as early apoptotic cells at 500 nM after 24 hrs by FITC-conjugated annexin V and propidium iodide staining-based flow cytometry; type: functional
THP-1 [15] = test: Induction of apoptosis in human THP1 cells assessed as late apoptotic cells at 500 nM after 24 hrs by FITC-conjugated annexin V and propidium iodide staining-based flow cytometry; type: functional
THP-1 [16] = test: Induction of apoptosis in human THP1 cells assessed as non-viable necrotic cells at 500 nM after 24 hrs by FITC-conjugated annexin V and propidium iodide staining-based flow cytometry; type: functional
THP-1 [17] = test: Induction of apoptosis in human THP1 cells assessed as viable cells at 1000 nM after 24 hrs by FITC-conjugated annexin V and propidium iodide staining-based flow cytometry; type: functional; details: THP-1, 24 h, read-out: Activity
THP-1 [18] = test: Induction of apoptosis in human THP1 cells assessed as early apoptotic cells at 1000 nM after 24 hrs by FITC-conjugated annexin V and propidium iodide staining-based flow cytometry; type: functional
THP-1 [19] = test: Induction of apoptosis in human THP1 cells assessed as late apoptotic cells at 1000 nM after 24 hrs by FITC-conjugated annexin V and propidium iodide staining-based flow cytometry; type: functional
THP-1 [20] = test: Induction of apoptosis in human THP1 cells assessed as non-viable necrotic cells at 1000 nM after 24 hrs by FITC-conjugated annexin V and propidium iodide staining-based flow cytometry; type: functional
THP-1 [21] = test: Induction of apoptosis in human THP1 cells assessed as viable cells at 2000 nM after 24 hrs by FITC-conjugated annexin V and propidium iodide staining-based flow cytometry; type: functional; details: THP-1, 24 h, read-out: Activity
THP-1 [22] = test: Induction of apoptosis in human THP1 cells assessed as early apoptotic cells at 2000 nM after 24 hrs by FITC-conjugated annexin V and propidium iodide staining-based flow cytometry; type: functional
THP-1 [23] = test: Induction of apoptosis in human THP1 cells assessed as late apoptotic cells at 2000 nM after 24 hrs by FITC-conjugated annexin V and propidium iodide staining-based flow cytometry; type: functional
THP-1 [24] = test: Induction of apoptosis in human THP1 cells assessed as non-viable necrotic cells at 2000 nM after 24 hrs by FITC-conjugated annexin V and propidium iodide staining-based flow cytometry; type: functional
HL-60 [25] = test: Induction of apoptosis in human HL60 cells assessed as total apoptotic cells at 50 to 100 nM after 24 hrs by FITC-conjugated annexin V and propidium iodide staining-based flow cytometry; type: functional
HL-60 [26] = test: Induction of apoptosis in human HL60 cells assessed as total apoptotic cells at 1000 nM after 24 hrs by FITC-conjugated annexin V and propidium iodide staining-based flow cytometry; type: functional
HL-60 [27] = test: Induction of apoptosis in human HL60 cells assessed as early apoptotic cells at 50 nM after 24 hrs by FITC-conjugated annexin V and propidium iodide staining-based flow cytometry; type: functional
HL-60 [28] = test: Induction of apoptosis in human HL60 cells assessed as early apoptotic cells at 250 nM after 24 hrs by FITC-conjugated annexin V and propidium iodide staining-based flow cytometry; type: functional
HL-60 [29] = test: Induction of apoptosis in human HL60 cells assessed as early apoptotic cells at 500 to 1000 nM after 24 hrs by FITC-conjugated annexin V and propidium iodide staining-based flow cytometry; type: functional
HL-60 [30] = test: Induction of apoptosis in human HL60 cells assessed as decrease in procaspase-8 level at 500 nM after 24 hrs by Western blot analysis; type: functional, cell-based

## O=C1c2ccc(Br)cc2-[n+]2ccc3c([nH]c4ccccc43)c21.[Cl-]
[1]
  INCC50: 106.4 nM
HeLa [2]
  INCC50: 108.1 nM
HL-60 [3]
  INCC50: 103.5 nM
SK-MEL-28 [4]
  INCC50: 162.9 nM
THP-1 [5]
  INCC50: 59.7 nM
[6]
  IC50: 284 nM
HL-60 [7]
  IC50: 549 nM
THP-1 [8]
  IC50: 521 nM
HeLa [9]
  IC50: 337 nM
MDA-MB-231
  IC50: 575 nM
DLD-1
  IC50: 243 nM
[10]
  IC50: 238 nM
SK-MEL-28 [11]
  IC50: 785 nM
THP-1 [12]
  Activity: Dose-dependent effect
THP-1 [13]
  viability at 0.5 µM: 68.2%
THP-1 [14]
  Activity: 13%
THP-1 [15]
  Activity: 12.4%
THP-1 [16]
  Activity: 6.4%
THP-1 [17]
  viability at 1 µM: 40.9%
THP-1 [18]
  Activity: 17.9%
THP-1 [19]
  Activity: 23.2%
THP-1 [20]
  Activity: 18%
THP-1 [21]
  viability at 2 µM: 25.8%
THP-1 [22]
  Activity: 25.8%
THP-1 [23]
  Activity: 25.5%
THP-1 [24]
  Activity: 23.5%
HL-60 [25]
  Activity: 20%
HL-60 [26]
  Activity: 90%
HL-60 [27]
  Activity: 5%
HL-60 [28]
  Activity: 40%
HL-60 [29]
  Activity: 20%
HL-60 [30]
  inhibition: Active
